Among the data in PubChem BioAssay AID248 (DTP/NCI, 2004) are T/C values, retold here.

Several values for one entry are separate records, joined by “and”; a condition that tells them apart may be missing. Equal entries are not always repeated. Inconclusive results and toxic doses are left out.

The test system of the test is L1210 leukemia ip in BDF1 mice, survival T/C. The test is described as follows: NCI In Vivo Anticancer Drug Screen. Data for tumor model L1210 Leukemia (intraperitoneal) in B6D2F1 (BDF1) mice. The note with it: endpoint: mean survival time, higher = longer survival. The method in brief: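 Each compound was tested against a transplantable tumor grown in mice. The endpoint was survival, with treated animals benchmarked against vehicle controls as a simple ratio.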

The mark [1] stands for this setting: dose: 100.0 mg/kg/injection, schedule: Q01DX009 (ip), vehicle: Klucel (hydroxypropylcellulose) (HPC).
Where [2] appears, read: dose: 200.0 mg/kg/injection, schedule: Q01DX009 (ip), vehicle: Klucel (hydroxypropylcellulose) (HPC).
Where [3] appears, read: dose: 400.0 mg/kg/injection, schedule: Q01DX009 (ip), vehicle: Klucel (hydroxypropylcellulose) (HPC).
Setting [4] is: dose: 100.0 mg/kg/injection, schedule: Q04DX003 (ip), vehicle: Klucel (hydroxypropylcellulose) (HPC).
Setting [5] is: dose: 200.0 mg/kg/injection, schedule: Q04DX003 (ip), vehicle: Klucel (hydroxypropylcellulose) (HPC).
Setting [6] is: dose: 100.0 mg/kg/injection, schedule: Q01DX009 (ip), vehicle: saline with Tween-80.
Where [7] appears, read: dose: 200.0 mg/kg/injection, schedule: Q01DX009 (ip), vehicle: saline with Tween-80.
[8] abbreviates: dose: 400.0 mg/kg/injection, schedule: Q04DX003 (ip), vehicle: Klucel (hydroxypropylcellulose) (HPC).
Where [9] appears, read: dose: 50.0 mg/kg/injection, schedule: Q01DX009 (ip), vehicle: saline with Tween-80.
Setting [10] is: dose: 100.0 mg/kg/injection, schedule: Q01DX001 (ip), vehicle: saline.
[11] abbreviates: dose: 200.0 mg/kg/injection, schedule: Q01DX001 (ip), vehicle: saline.
[12] abbreviates: dose: 400.0 mg/kg/injection, schedule: Q01DX001 (ip), vehicle: saline.

As to `S=c1nc[nH]c2c1ncn2CCCc1ccccc1`, the T/C by setting is: (dose: 50.0 mg/kg/injection, schedule: Q01DX001 (ip), vehicle: carboxymethylcellulose (CMC)) 106 % of control; (dose: 100.0 mg/kg/injection, schedule: Q01DX001 (ip), vehicle: carboxymethylcellulose (CMC)) 98 % of control; (dose: 200.0 mg/kg/injection, schedule: Q01DX001 (ip), vehicle: carboxymethylcellulose (CMC)) 98 % of control; (dose: 400.0 mg/kg/injection, schedule: Q01DX001 (ip), vehicle: carboxymethylcellulose (CMC)) 95 % of control.

With `CCOC(=O)C(Br)(C(=O)OCC)C(=O)c1cc(-c2ccc(Cl)c(Cl)c2)nc2c(Cl)cc(Cl)cc12`, the T/C is 103 % of control (dose: 100.0 mg/kg/injection, schedule: Q01DX001 (ip), vehicle: Klucel (hydroxypropylcellulose) (HPC)); 95 % of control under setting [1]; 111 % of control (dose: 200.0 mg/kg/injection, schedule: Q01DX001 (ip), vehicle: Klucel (hydroxypropylcellulose) (HPC)); 96 % of control under setting [2]; 105 % of control (dose: 400.0 mg/kg/injection, schedule: Q01DX001 (ip), vehicle: Klucel (hydroxypropylcellulose) (HPC)); 95 % of control under setting [3].

On to `CC1C(=O)OC2CC[N+]3(C)CC=C(COC(=O)C(C)(O)C1(C)O)C23` (configuration not stated), for which the T/C runs as follows: (dose: 50.0 mg/kg/injection, schedule: Q01DX009 (ip), vehicle: saline) 92 % of control; (dose: 100.0 mg/kg/injection, schedule: Q01DX009 (ip), vehicle: saline) 100 % of control; (dose: 200.0 mg/kg/injection, schedule: Q01DX009 (ip), vehicle: saline) 92 % of control.

With `CCOC(=O)c1[nH]c(C)c(C)c1-c1ccccc1`, the T/C runs as follows: under setting [4], 109 % of control; under setting [5], 94 % of control.

Consider `O=C(Nc1ccc(Cl)cc1[N+](=O)[O-])Oc1ccc(-c2ccccc2)cc1`, for which the T/C is, setting by setting: (dose: 100.0 mg/kg/injection, schedule: Q01DX001 (ip), vehicle: saline with Tween-80) 97 % of control; under setting [6], 94 % of control and 103 % of control; (dose: 100.0 mg/kg/injection, schedule: Q04DX002 (ip), vehicle: saline with Tween-80) 97 % of control and 91 % of control; (dose: 100.0 mg/kg/injection, schedule: Q04DX003 (ip), vehicle: saline with Tween-80) 108 % of control; (dose: 200.0 mg/kg/injection, schedule: Q01DX001 (ip), vehicle: saline with Tween-80) 100 % of control; under setting [7], 92 % of control. The T/C (dose: 200.0 mg/kg/injection, schedule: Q04DX002 (ip), vehicle: saline with Tween-80) was 102 % of control and 90 % of control; the T/C (dose: 200.0 mg/kg/injection, schedule: Q04DX003 (ip), vehicle: saline with Tween-80) was 107 % of control; the T/C (dose: 400.0 mg/kg/injection, schedule: Q01DX001 (ip), vehicle: saline with Tween-80) was 89 % of control; the T/C (dose: 400.0 mg/kg/injection, schedule: Q01DX009 (ip), vehicle: saline with Tween-80) is 106 % of control and 92 % of control; the T/C (dose: 400.0 mg/kg/injection, schedule: Q04DX002 (ip), vehicle: saline with Tween-80) was 103 % of control and 91 % of control; the T/C (dose: 400.0 mg/kg/injection, schedule: Q04DX003 (ip), vehicle: saline with Tween-80) is 95 % of control.

Turning to `Cc1ccc(NC(=O)Nc2cccc(Cl)c2)cc1C`, the T/C reads like this: under setting [1], 96 % of control; under setting [4], 90 % of control; under setting [2], 98 % of control; under setting [5], 92 % of control; under setting [3], 95 % of control; under setting [8], 92 % of control.

On to `O=C(OC1C=CCC=C1)c1cc([N+](=O)[O-])cc([N+](=O)[O-])c1`, for which the T/C reads like this: (dose: 100.0 mg/kg/injection, schedule: Q04DX003 (ip), vehicle: other) 101 % of control; (dose: 200.0 mg/kg/injection, schedule: Q04DX003 (ip), vehicle: other) 101 % of control; (dose: 400.0 mg/kg/injection, schedule: Q04DX003 (ip), vehicle: other) 94 % of control.

Take `CNC(=O)Oc1cccc(C)c1`: the T/C (dose: 25.0 mg/kg/injection, schedule: Q01DX009 (ip), vehicle: saline with Tween-80) was 97 % of control and the T/C under setting [9] is 94 % of control.

On to `CCOP(N)(=O)SC` (configuration not stated), for which the T/C (dose: 5.0 mg/kg/injection, schedule: Q01DX001 (ip), vehicle: saline) was 101 % of control.

On to `COc1ccc(-c2cc3c(OC)ccc(OC)c3[nH]2)cc1OC`, for which the T/C runs as follows: (dose: 25.0 mg/kg/injection, schedule: Q04DX002 (ip), vehicle: Klucel (hydroxypropylcellulose) (HPC)) 96 % of control; (dose: 50.0 mg/kg/injection, schedule: Q04DX002 (ip), vehicle: Klucel (hydroxypropylcellulose) (HPC)) 96 % of control and 99 % of control; (dose: 100.0 mg/kg/injection, schedule: Q04DX002 (ip), vehicle: Klucel (hydroxypropylcellulose) (HPC)) 91 % of control; (dose: 200.0 mg/kg/injection, schedule: Q04DX002 (ip), vehicle: Klucel (hydroxypropylcellulose) (HPC)) 93 % of control.

As for `Brc1cscc1-c1c2ccccc2cc2ccccc12`, the T/C was 106 % of control under setting [9], 98 % of control under setting [6] and 98 % of control under setting [7].

On to `Cc1ccc(N=C=C(c2ccc(Cl)cc2)c2ccc(Cl)cc2)cc1`, for which the T/C (dose: 1.56 mg/kg/injection, schedule: Q01DX009 (ip), vehicle: DMSO) was 104 % of control; the T/C (dose: 3.12 mg/kg/injection, schedule: Q01DX009 (ip), vehicle: DMSO) is 93 % of control; the T/C (dose: 6.25 mg/kg/injection, schedule: Q01DX009 (ip), vehicle: DMSO) is 97 % of control and 103 % of control; the T/C (dose: 12.5 mg/kg/injection, schedule: Q04DX002 (ip), vehicle: DMSO) was 105 % of control; the T/C (dose: 25.0 mg/kg/injection, schedule: Q04DX002 (ip), vehicle: DMSO) is 109 % of control.

On to `C=CCc1ccc2c(c1)OC(CO)CO2` (configuration not stated) (tested in a mixture with another compound), for which the T/C is, setting by setting: under setting [10], 90 % of control; under setting [11], 93 % of control; under setting [12], 93 % of control.

Consider `COP(=O)(OC)/C(=N\NS(=O)(=O)c1ccc(C)cc1)c1ccccc1`, for which the T/C under setting [4] was 94 % of control, the T/C under setting [5] is 101 % of control and the T/C under setting [8] was 94 % of control.

Consider `CC(=O)OCC(OC(C)=O)C1(O)CCC2C3CCC4=CC(=O)CCC4(C)C3CCC21C` (configuration not stated), for which the T/C is 100 % of control (dose: 50.0 mg/kg/injection, schedule: Q01DX009 (ip), vehicle: Klucel (hydroxypropylcellulose) (HPC)); 94 % of control and 107 % of control under setting [1]; 93 % of control under setting [2].

With `CC12CCC(O1)C1C[N+](C)(CCC#N)CC12` (configuration not stated), the T/C was 105 % of control (dose: 55.0 mg/kg/injection, schedule: Q01DX Z (ip), vehicle: saline); 100 % of control (dose: 83.0 mg/kg/injection, schedule: Q01DX Z (ip), vehicle: saline); 105 % of control (dose: 125.0 mg/kg/injection, schedule: Q01DX Z (ip), vehicle: saline).

With `CC1(C)Cc2ccccc2C(c2ccccn2)=N1`, the T/C is 96 % of control under setting [4], 112 % of control under setting [5] and 112 % of control under setting [8].

As to `CCN(CC)CCNCCCS(=O)(=O)c1ccc(NC(C)=O)cc1`, the T/C is, setting by setting: under setting [10], 97 % of control; under setting [11], 97 % of control; under setting [12], 97 % of control.

Consider `c1ccc([P+](C[P+](c2ccccc2)(c2ccccc2)c2ccccc2)(c2ccccc2)c2ccccc2)cc1`, for which the T/C reads like this: (dose: 0.19 mg/kg/injection, schedule: Q01DX009 (ip), vehicle: Klucel (hydroxypropylcellulose) (HPC)) 98 % of control; (dose: 0.39 mg/kg/injection, schedule: Q01DX009 (ip), vehicle: Klucel (hydroxypropylcellulose) (HPC)) 175 % of control; (dose: 0.78 mg/kg/injection, schedule: Q01DX009 (ip), vehicle: Klucel (hydroxypropylcellulose) (HPC)) 102 % of control; (dose: 1.56 mg/kg/injection, schedule: Q01DX009 (ip), vehicle: Klucel (hydroxypropylcellulose) (HPC)) 97 % of control; (dose: 1.56 mg/kg/injection, schedule: Q04DX003 (ip), vehicle: Klucel (hydroxypropylcellulose) (HPC)) 93 % of control; (dose: 3.12 mg/kg/injection, schedule: Q01DX009 (ip), vehicle: Klucel (hydroxypropylcellulose) (HPC)) 97 % of control. Further, the T/C is, setting by setting: (dose: 3.12 mg/kg/injection, schedule: Q04DX003 (ip), vehicle: Klucel (hydroxypropylcellulose) (HPC)) 92 % of control; (dose: 6.25 mg/kg/injection, schedule: Q04DX003 (ip), vehicle: Klucel (hydroxypropylcellulose) (HPC)) 90 % of control.
